Experimental data as given in ChEMBL document CHEMBL1772960, “N,N'-methyleno-didemnin A from the ascidian Trididemnum solidum. Complete NMR assignments and confirmation of the imidazolidinone ring by strategic analysis of 1J(CH)” (J Nat Prod, 2011).
*1 amine or outer side, *2 acyl side, *3 side chain or, on linkers, in order; H or OH if unused. Where a SMILES comes first, the peptide text is derived from it. Bridges are numbered along the chain shown (N, C = ends). [ ]: non-standard residue; d: D form. The star is where a group is joined. X1 = CC[C@H](C)[C@@H](N[*:1])[C@@H](O)CC(=O)O[C@H](C(=O)[C@H](C)C(=O)[*:2])C(C)C; NMeY = CN[C@@H](Cc1ccc(O)cc1)C(=O)O; NMeL = CN[C@@H](CC(C)C)C(=O)O; dNMeL = CN[C@H](CC(C)C)C(=O)O; Pyruvoyl = CC(=O)C(=O)*

System: HCT-116
Assay: Cytotoxicity against human HCT116 cells assessed as growth inhibition after 72 hrs by MTS assay
Assay type: functional, cell-based
Conditions: HCT-116, 72 h

| Structure (SMILES) | IC50 |
| --- | --- |
| CC[C@H](C)[C@H]1NC(=O)[C@@H](NC(=O)[C@H](CC(C)C)N(C)C(=O)[C@@H]2CCCN2C(=O)C(C)=O)[C@@H](C)OC(=O)[C@H](Cc2ccc(OC)cc2)N(C)C(=O)[C@@H]2CCCN2C(=O)[C@H](CC(C)C)NC(=O)[C@@H](C)C(=O)[C@H](C(C)C)OC(=O)C[C@@H]1O (Pyruvoyl-P[NMeL]T[X1]LP[NMeY](Me); ester 3-C) | 24 nM |
| CC[C@H](C)[C@H]1NC(=O)[C@@H](NC(=O)[C@@H](CC(C)C)NC)[C@@H](C)OC(=O)[C@H](Cc2ccc(OC)cc2)N(C)C(=O)[C@@H]2CCCN2C(=O)[C@H](CC(C)C)NC(=O)[C@@H](C)C(=O)[C@H](C(C)C)OC(=O)C[C@@H]1O [DIDEMNIN A] (H-[dNMeL]T[X1]LP[NMeY](Me); ester 2-C) | 32 nM |
